Data published in patent publication US20260132129A1 (Genesis Therapeutics, Inc., priority 2022, published 2026).

Target: T1, PI3Kα H1047R (T47D cells) (Homo sapiens, UniProt P42336, H1047R)
T1 construct: endogenous in cells; host or cells: T47D cells
Test: PI3Kα cellular assay: pAKT HTRF in T47D cells after EGF stimulation
Assay type: cell-based
Conditions: for IC50: T47D cells (PI3Kα H1047R), pAKT S473 HTRF, EGF stimulation
Summary of the method: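 T47D cells (PIK3CA H1047R) serum-starved 16 h, then treated 1 h at 37 °C with compound (10,000 nM top, 3-fold steps to 0.5 nM). After 10 min stimulation with 20 ng/mL EGF, cells were lysed and pAKT measured by HTRF.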

[1] = selectivity T47D (H1047R) over SKBR3 (WT), pAKT HTRF

T1 sequence (P42336 whole entry H1047R): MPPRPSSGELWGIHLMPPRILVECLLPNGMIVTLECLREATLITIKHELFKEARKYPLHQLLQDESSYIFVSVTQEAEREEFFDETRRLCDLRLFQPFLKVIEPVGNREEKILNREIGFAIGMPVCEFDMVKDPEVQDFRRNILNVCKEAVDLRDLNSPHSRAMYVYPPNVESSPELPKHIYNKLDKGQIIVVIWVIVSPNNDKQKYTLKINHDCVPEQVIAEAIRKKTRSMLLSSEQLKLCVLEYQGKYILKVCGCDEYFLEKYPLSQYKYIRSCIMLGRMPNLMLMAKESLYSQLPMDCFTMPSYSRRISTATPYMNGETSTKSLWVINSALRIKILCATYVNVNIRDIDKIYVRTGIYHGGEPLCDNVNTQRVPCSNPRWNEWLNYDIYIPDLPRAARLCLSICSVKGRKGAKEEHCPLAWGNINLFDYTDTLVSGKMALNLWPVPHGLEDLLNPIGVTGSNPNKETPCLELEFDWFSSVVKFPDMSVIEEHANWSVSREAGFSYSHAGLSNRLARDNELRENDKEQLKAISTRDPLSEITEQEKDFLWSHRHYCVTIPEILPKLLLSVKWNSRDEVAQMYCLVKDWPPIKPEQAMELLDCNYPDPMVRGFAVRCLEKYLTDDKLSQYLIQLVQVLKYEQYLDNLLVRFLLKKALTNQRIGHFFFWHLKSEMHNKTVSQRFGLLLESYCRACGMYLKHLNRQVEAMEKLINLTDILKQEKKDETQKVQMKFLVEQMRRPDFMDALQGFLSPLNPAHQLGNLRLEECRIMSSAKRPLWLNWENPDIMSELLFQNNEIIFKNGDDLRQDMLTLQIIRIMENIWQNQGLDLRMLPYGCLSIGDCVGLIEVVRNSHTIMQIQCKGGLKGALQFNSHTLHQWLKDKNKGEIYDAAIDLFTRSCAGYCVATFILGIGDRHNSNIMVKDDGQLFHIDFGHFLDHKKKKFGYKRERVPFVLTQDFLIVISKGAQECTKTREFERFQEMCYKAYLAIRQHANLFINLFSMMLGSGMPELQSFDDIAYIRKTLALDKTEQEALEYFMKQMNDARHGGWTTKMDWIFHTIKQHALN
T1 sequence (P27986 whole entry partner): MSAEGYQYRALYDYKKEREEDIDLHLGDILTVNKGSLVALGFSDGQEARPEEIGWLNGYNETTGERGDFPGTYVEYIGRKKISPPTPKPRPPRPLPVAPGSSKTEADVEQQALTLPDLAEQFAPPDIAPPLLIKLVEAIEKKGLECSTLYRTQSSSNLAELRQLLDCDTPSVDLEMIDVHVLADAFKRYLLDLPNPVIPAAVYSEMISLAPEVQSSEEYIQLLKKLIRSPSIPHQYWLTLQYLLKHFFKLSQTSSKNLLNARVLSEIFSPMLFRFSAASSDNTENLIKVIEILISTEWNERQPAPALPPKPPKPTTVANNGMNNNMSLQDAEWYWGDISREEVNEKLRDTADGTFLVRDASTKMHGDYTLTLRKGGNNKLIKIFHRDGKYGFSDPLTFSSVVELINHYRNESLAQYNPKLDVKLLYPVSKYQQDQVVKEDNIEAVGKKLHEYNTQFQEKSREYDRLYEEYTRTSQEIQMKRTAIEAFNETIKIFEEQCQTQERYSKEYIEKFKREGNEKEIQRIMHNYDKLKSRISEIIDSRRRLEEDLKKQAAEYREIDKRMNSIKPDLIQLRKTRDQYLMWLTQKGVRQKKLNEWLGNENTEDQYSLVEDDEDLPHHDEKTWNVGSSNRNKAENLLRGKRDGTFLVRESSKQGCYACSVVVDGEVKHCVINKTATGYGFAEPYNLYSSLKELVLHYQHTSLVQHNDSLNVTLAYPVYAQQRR

IC50	T47D pAKT S473 HTRF IC50 (H1047R): T47D (H1047R) selectivity over SKBR3 (WT) (selectivity of T47D (H1047R) over SKBR3 (WT) pAKT IC50)	T47D pAKT S473 HTRF IC50 (H1047R): T47D (H1047R) selectivity over SKBR3 (WT) [1]	SMILES
> 2 µM	C (C denotes ≤5-fold)		Cc1cc([C@H](C)Nc2ccccc2C(=O)O)c2nc(C3CCOCC3)c(C)c(=O)n2c1 [Compound 1056]
> 2 µM		C (C denotes ≤5-fold)	Cc1cc([C@H](C)Nc2ccccc2S(N)(=O)=O)c2nc(-c3cnc4c(c3)c(C)cn4C)c(C)c(=O)n2c1 [Compound 1060]
		C (C denotes ≤5-fold)	Cc1cc([C@@H](C)Nc2ccccc2S(C)(=O)=O)c2nc(-c3ccc4c(C)cn(C)c4c3)c(C)c(=O)n2c1 [Compound 1061]
		C (C denotes ≤5-fold)	Cc1cc([C@H](C)Nc2ccccc2S(C)(=O)=O)c2nc(-c3ccc4c(C)cn(C)c4c3)c(C)c(=O)n2c1 [Compound 1062]
0.1 to 0.5 µM		A (A denotes >20-fold)	Cc1cc(C(C)Nc2ccccc2C(N)=O)c2nc(-c3ccnc(C4CC4)c3)c(C)c(=O)n2c1 (centres unmarked) [Compound 1063]
> 2 µM		C (C denotes ≤5-fold)	Cc1cc([C@H](C)Nc2ccccc2C(=O)O)c2nc(-c3ccnc(C)c3)c(C)c(=O)n2c1 [Compound 1068]
< 0.1 µM		A (A denotes >20-fold)	COc1ccc(-c2nc3c([C@@H](C)Nc4ccccc4C(=O)O)cc(C)cn3c(=O)c2C)cc1 [Compound 1070]
> 2 µM		C (C denotes ≤5-fold)	COc1ccc(-c2nc3c([C@H](C)Nc4ccccc4C(=O)O)cc(C)cn3c(=O)c2C)cc1 [Compound 1071]
> 2 µM		C (C denotes ≤5-fold)	Cc1cc([C@@H](C)Nc2ccccc2C(=O)O)c2nc(-c3cccc(F)c3)c(C)c(=O)n2c1 [Compound 1073]
> 2 µM		C (C denotes ≤5-fold)	Cc1cc([C@H](C)Nc2ccccc2C(=O)O)c2nc(-c3ccc(CC4CCN(C(=O)C5CC5)CC4)c(F)c3)c(C)c(=O)n2c1 [Compound 1075]
0.5 to 2 µM		B (B denotes 20-fold≥value>5-fold)	Cc1cc([C@H](C)Nc2ccccc2C(=O)O)c2nc(-c3ccc4c(c3)c(C#N)nn4C)c(C)c(=O)n2c1 [Compound 1082]
> 2 µM		C (C denotes ≤5-fold)	Cc1cc(C(C)Nc2ccccc2)c2nc(N3Cc4ccccc4C3)c(C)c(=O)n2c1 (centres unmarked) [Compound 1085]
> 2 µM		C (C denotes ≤5-fold)	Cc1cc(C(C)Nc2ccccc2)c2nc(-c3ccc(F)cc3)c(C)c(=O)n2c1 (centres unmarked) [Compound 1086]
> 2 µM		C (C denotes ≤5-fold)	Cc1cc([C@@H](C)Nc2ccccc2C(N)=O)c2nc(-c3ccnc(C4CC4)c3)c(C)c(=O)n2c1 [Compound 1089]
< 0.1 µM		A (A denotes >20-fold)	Cc1cc(C(C)Nc2ccccc2C(N)=O)c2nc(-c3ccnc(C4CC4)c3)c(C)c(=O)n2c1 (centres unmarked) [Compound 1090]
0.1 to 0.5 µM		A (A denotes >20-fold)	Cc1cc(C(C)Nc2ccccc2C(N)=O)c2nc(-c3ccc(F)c(C#N)c3)c(C)c(=O)n2c1 (centres unmarked) [Compound 1092]
0.1 to 0.5 µM		A (A denotes >20-fold)	Cc1cc(C(C)Nc2ccccc2C(N)=O)c2nc(-c3cnc(C)c(Cl)c3)c(C)c(=O)n2c1 (centres unmarked) [Compound 1094]
> 2 µM		C (C denotes ≤5-fold)	Cc1cc([C@@H](C)Nc2ccccc2S(N)(=O)=O)c2nc(-c3ccnc(C4CC4)c3)c(C)c(=O)n2c1 [Compound 1095]
< 0.1 µM		A (A denotes >20-fold)	Cc1cc([C@@H](C)Nc2ccccc2S(N)(=O)=O)c2nc(-c3cccc(C(F)F)c3)c(C)c(=O)n2c1 [Compound 1097]
> 2 µM		C (C denotes ≤5-fold)	Cc1cc([C@H](C)Nc2ccccc2S(N)(=O)=O)c2nc(-c3cccc(C(F)F)c3)c(C)c(=O)n2c1 [Compound 1098]
< 0.1 µM		A (A denotes >20-fold)	Cc1cc(C(C)Nc2ccccc2C(=O)O)c2nc(-c3cc(C)nc(Cl)c3)c(C)c(=O)n2c1 (centres unmarked) [Compound 1099]

IC50	T47D pAKT S473 HTRF IC50 (H1047R): T47D (H1047R) selectivity over SKBR3 (WT) (selectivity of T47D (H1047R) over SKBR3 (WT) pAKT IC50)	T47D pAKT S473 HTRF IC50 (H1047R): T47D (H1047R) selectivity over SKBR3 (WT) [1]	SMILES
< 0.1 µM		A (A denotes >20-fold)	COc1cc(-c2nc3c([C@@H](C)Nc4ccccc4C(=O)O)cc(C)cn3c(=O)c2C)ccn1 [Compound 1101]
< 0.1 µM		A (A denotes >20-fold)	Cc1cc(C(C)Nc2ccccc2C(=O)O)c2nc(-c3cc(F)cc(C#N)c3)c(C)c(=O)n2c1 (centres unmarked) [Compound 1103]
< 0.1 µM		A (A denotes >20-fold)	Cc1cc([C@@H](C)Nc2ccccc2S(N)(=O)=O)c2nc(-c3cccnc3)c(C)c(=O)n2c1 [Compound 1107]
0.5 to 2 µM		B (B denotes 20-fold≥value>5-fold)	Cc1cc([C@H](C)Nc2ccccc2S(N)(=O)=O)c2nc(-c3cccnc3)c(C)c(=O)n2c1 [Compound 1108]
< 0.1 µM		A (A denotes >20-fold)	Cc1cc([C@@H](C)Nc2ccccc2C(=O)O)c2nc(-c3ccc(C4CC4)nc3)cc(=O)n2c1 [Compound 1111]
		B (B denotes 20-fold≥value>5-fold)	Cc1cc([C@H](C)Nc2ccccc2C(=O)O)c2nc(C3C=NC(C4CC4)=CC3)cc(=O)n2c1 (some centres unmarked) [Compound 1112]
> 2 µM		C (C denotes ≤5-fold)	Cc1cc([C@@H](C)Nc2ccccc2C(=O)O)c2nc(-c3cccc(C(F)F)c3)cc(=O)n2c1 [Compound 1113]
< 0.1 µM		A (A denotes >20-fold)	Cc1cc([C@H](C)Nc2ccccc2C(=O)O)c2nc(-c3cccc(C(F)F)c3)cc(=O)n2c1 [Compound 1114]
< 0.1 µM		A (A denotes >20-fold)	CCc1c(-c2ccc(F)cc2)nc2c([C@@H](C)Nc3ccccc3C(=O)O)cc(C)cn2c1=O [Compound 1115]
0.5 to 2 µM		B (B denotes 20-fold≥value>5-fold)	CCc1c(-c2ccc(F)cc2)nc2c([C@H](C)Nc3ccccc3C(=O)O)cc(C)cn2c1=O [Compound 1116]
		B (B denotes 20-fold≥value>5-fold)	Cc1cc(C(C)Nc2ccccc2C#N)c2nc(-c3ccccc3)c(C)c(=O)n2c1 (centres unmarked) [Compound 1117]
> 2 µM		C (C denotes ≤5-fold)	C=CC(=O)Nc1ccc(C(=O)O)c(N[C@H](C)c2cc(C)cn3c(=O)c(C)c(N4Cc5ccccc5C4)nc23)c1 [Compound 1121]
> 2 µM		C (C denotes ≤5-fold)	C=CC(=O)Nc1ccc(C(=O)O)c(N[C@@H](C)c2cc(C)cn3c(=O)c(C)c(N4Cc5ccccc5C4)nc23)c1 [Compound 1122]
> 2 µM		C (C denotes ≤5-fold)	Cc1cc([C@@H](C)Nc2ccccc2)c2nc(-c3ccc(F)cc3)c(C)c(=O)n2c1 [Compound 1123]
> 2 µM		C (C denotes ≤5-fold)	Cc1cc([C@H](C)Nc2ccccc2)c2nc(-c3ccc(F)cc3)c(C)c(=O)n2c1 [Compound 1124]
> 2 µM		C (C denotes ≤5-fold)	Cc1cc([C@H](C)Nc2ccccc2C(=O)O)c2nc(-c3ccc4c(C)nn(C5CC5)c4c3)c(C)c(=O)n2c1 [Compound 1126]
> 2 µM		C (C denotes ≤5-fold)	Cc1cc(C(C)Nc2ccccc2-c2ccnnc2)c2nc(-c3ccc4c(C)nn(C5CC5)c4c3)c(C)c(=O)n2c1 (centres unmarked) [Compound 1127]
> 2 µM		C (C denotes ≤5-fold)	Cc1cc([C@@H](C)Nc2ccccc2-c2ccnnc2)c2nc(-c3ccc4c(C)nn(C5CC5)c4c3)c(C)c(=O)n2c1 [Compound 1128]
0.5 to 2 µM		B (B denotes 20-fold≥value>5-fold)	Cc1cc([C@H](C)Nc2ccccc2-c2ccnnc2)c2nc(-c3ccc4c(C)nn(C5CC5)c4c3)c(C)c(=O)n2c1 [Compound 1129]
> 2 µM		C (C denotes ≤5-fold)	Cc1cc([C@H](C)Nc2ccccc2C(N)=O)c2nc(-c3ccc4c(C)cn(C)c4c3)c(C)c(=O)n2c1 [Compound 1131]

SMILES	IC50	T47D pAKT S473 HTRF IC50 (H1047R): T47D (H1047R) selectivity over SKBR3 (WT) (selectivity of T47D (H1047R) over SKBR3 (WT) pAKT IC50)	T47D pAKT S473 HTRF IC50 (H1047R): T47D (H1047R) selectivity over SKBR3 (WT) [1]
Cc1cc([C@@H](C)Nc2ccccc2C(=O)O)c2nc(-c3ccc(Cl)cc3F)c(C)c(=O)n2c1 [Compound 1069]	< 0.1 µM		A (A denotes >20-fold)
Cc1cc([C@@H](C)Nc2ccccc2C(=O)O)c2nc(-c3cccc(C(F)F)c3)c(C)c(=O)n2c1 [Compound 1077]	0.5 to 2 µM		B (B denotes 20-fold≥value>5-fold)
Cc1cc([C@H](C)Nc2ccccc2C(=O)O)c2nc(-c3cnc(C#N)c(Cl)c3)c(C)c(=O)n2c1 [Compound 1084]	> 2 µM		C (C denotes ≤5-fold)
Cc1cc(C(C)Nc2ccccc2S(N)(=O)=O)c2nc(-c3ccnc(C4CC4)c3)c(C)c(=O)n2c1 (centres unmarked) [Compound 1096]	< 0.1 µM		A (A denotes >20-fold)
